This note sets out measurements from ChEMBL document CHEMBL5113429, “Diazepinone HBV capsid assembly modulators” (Bioorg Med Chem Lett, 2022).

Data set [1] can be described thus: Intrinsic clearance in human liver microsomes. The class given is ADME, Microsome. The following applies: read-out: CLH.
Data set [2] is described as follows: Thermodynamic solubility in pH 7 buffer. The class given is physicochemical. The conditions noted are these: read-out: Therm_solubility.
A short description of data set [3]: Intrinsic clearance in dog hepatocytes. The class given is ADME, cell-based, Canis lupus familiaris, Hepatocyte. The following applies: read-out: CLH.
Data set [4] can be described thus: Tmax in Beagle dog at 2.5 mg/kg, po. The class given is ADME, organism-based, Canis lupus familiaris. The conditions noted are these: in vivo.
Data set [5] can be described thus: Protein binding in mouse plasma. It counts as ADME, cell-free. The conditions noted are these: read-out: PPB (converted).
Data set [6] is described as follows: Intrinsic clearance in rat liver microsomes. The class given is ADME, Microsome. The conditions noted are these: read-out: CLH. A general note: Liver microsomes are vesicles of endoplasmic reticulum, rich in cytochrome P450 enzymes.
Data set [7] is described as follows: Cmax in Beagle dog at 2.5 mg/kg, po. It counts as ADME, organism-based, Canis lupus familiaris. The following applies: in vivo. Also on record: dose 2.5 mg/kg, route po.
A short description of data set [8]: Intrinsic clearance in mouse liver microsomes. It counts as ADME, Microsome. The following applies: read-out: CLH.
Data set [9] is described as follows: Intrinsic clearance in human hepatocytes. It counts as ADME, cell-based, Hepatocyte. The conditions noted are these: read-out: CLH.
Data set [10] can be described thus: Lipophilicity, log D of compound. The class given is physicochemical. The conditions noted are these: octanol/water.
A short description of data set [11]: Intrinsic clearance in rat hepatocytes. The class given is ADME, cell-based, Hepatocyte. The following applies: read-out: CLH.
The nature of data set [12]: Tmax in mouse at 10 mg/kg, po. The class given is ADME, organism-based. The following applies: in vivo.
A short description of data set [13]: Oral bioavailability in rat at 5 mg/kg. The class given is ADME, organism-based. The following applies: in vivo.
Data set [14] in a line: Protein binding in dog plasma. It counts as ADME, cell-free, Canis lupus familiaris. The conditions noted are these: read-out: PPB (converted).
Data set [15] is described as follows: AUC (0 to infinity) in mouse at 10 mg/kg, po. It counts as ADME, organism-based. Also on record: time infinity, dose 10 mg/kg, route po. The following applies: in vivo.
A short description of data set [16]: Volume of distribution at steady state in mouse at 10 mg/kg, po or 2.5 mg/kg, iv. It counts as ADME, organism-based. The following applies: in vivo.
The nature of data set [17]: Volume of distribution at steady state in Beagle dog at 2.5 mg/kg, po or 0.5 mg/kg, iv. It counts as ADME, organism-based, Canis lupus familiaris. The following applies: in vivo.
A short description of data set [18]: Half life in mouse at 10 mg/kg, po or 2.5 mg/kg, iv. The class given is ADME, organism-based. The conditions noted are these: in vivo.
Data set [19] can be described thus: Protein binding in rat plasma. The class given is ADME, cell-free. The conditions noted are these: read-out: PPB (converted).
Data set [20] in a line: Intrinsic clearance in mouse hepatocytes. It counts as ADME, cell-based, Hepatocyte. The conditions noted are these: read-out: CLH.
In data set [21] the target is Core antigen (Hepatitis B virus) (UniProt Q03732). As to the kind of experiment: Ratio of EC50 for modulation of capsid assembly in HBV infected in human HepG2.2.15 cells in presence of 40% normal human serum to EC50 for modulation of capsid assembly in HBV infected in human HepG2.2.15 cells in absence of 40% normal human serum. It counts as cell-based.
The nature of data set [22]: AUC (0 to infinity) in rat at 5 mg/kg, po. It counts as ADME, organism-based. Set-up: time infinity, dose 5 mg/kg, route po. The conditions noted are these: in vivo.
Data set [23] can be described thus: Intrinsic clearance in dog liver microsomes. The class given is ADME, Canis lupus familiaris, Microsome. The conditions noted are these: read-out: CLH.
Data set [24] is described as follows: Cmax in rat at 5 mg/kg, po. It counts as ADME, organism-based. Set-up: dose 5 mg/kg, route po. The conditions noted are these: in vivo.
Data set [25] in a line: Protein binding in human plasma. The class given is ADME, cell-free. The following applies: read-out: PPB (converted).
A short description of data set [26]: Oral bioavailability in mouse at 10 mg/kg. The class given is ADME, organism-based. The conditions noted are these: in vivo.
Data set [27] is described as follows: Tmax in rat at 5 mg/kg, po. The class given is ADME, organism-based. The conditions noted are these: in vivo.
A short description of data set [28]: AUC (0 to infinity) in Beagle dog at 2.5 mg/kg, po. It counts as ADME, organism-based, Canis lupus familiaris. The following applies: in vivo. Set-up: time infinity, dose 2.5 mg/kg, route po.
The nature of data set [29]: Half life in Beagle dog at 2.5 mg/kg, po or 0.5 mg/kg, iv. It counts as ADME, organism-based, Canis lupus familiaris. The conditions noted are these: in vivo.
The nature of data set [30]: Oral bioavailability in Beagle dog at 2.5 mg/kg. The class given is ADME, organism-based, Canis lupus familiaris. The following applies: in vivo.
Data set [31] can be described thus: Half life in rat at 5 mg/kg, po or 1.25 mg/kg, iv. The following applies: in vivo. It counts as ADME, organism-based.
Data set [32] in a line: Cmax in mouse at 10 mg/kg, po. It counts as ADME, organism-based. Set-up: dose 10 mg/kg, route po. The following applies: in vivo.
Data set [33] in a line: Volume of distribution at steady state in rat at 5 mg/kg, po or 1.25 mg/kg, iv. The class given is ADME, organism-based. The following applies: in vivo.
Data set [34] can be described thus: Modulation of capsid assembly in HBV infected in human HepG2.2.15 cells assessed as inhibition of viral DNA replication.

In brackets after ≈: the same amount, converted by molar mass.

Core antigen (Hepatitis B virus), sequence (Q03732 as listed by the source): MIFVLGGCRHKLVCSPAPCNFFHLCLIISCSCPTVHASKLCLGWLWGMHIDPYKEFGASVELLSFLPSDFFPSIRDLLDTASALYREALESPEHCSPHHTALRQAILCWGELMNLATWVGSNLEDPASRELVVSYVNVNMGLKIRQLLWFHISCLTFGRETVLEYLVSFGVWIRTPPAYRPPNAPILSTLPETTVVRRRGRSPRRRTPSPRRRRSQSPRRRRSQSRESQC

On to `CN1CC(CO)Cn2nc3c(c2C1=O)CN(C(=O)Nc1ccc(F)c(Cl)c1)CC3` (racemic), for which the CLint scaled in data set [1] was less than 5 mL/min/kg. The solubility thermodynamic in data set [2] turned out to be 191 µM (≈ 80.6 µg/mL).
Regarding `CN1CC(C(F)F)Cn2nc3c(c2C1=O)CN(C(=O)Nc1ccc(F)c(Cl)c1)CC3` (racemic), the CLint scaled in data set [1] was found to be 15 mL/min/kg. The solubility thermodynamic in data set [2] worked out at 175 µM (≈ 77.3 µg/mL).
For `CN1CCC(CO)n2nc3c(c2C1=O)CN(C(=O)Nc1ccc(F)c(Cl)c1)CC3` (racemic) the same measures were 4.7 mL/min/kg and 195 µM (≈ 82.3 µg/mL).
For `CN1CC(N(C)C)Cn2nc3c(c2C1=O)CN(C(=O)Nc1ccc(F)c(Cl)c1)CC3` (racemic) the same measures were 14 mL/min/kg and 187 µM (≈ 81.3 µg/mL).
As for `CN1CCn2nc3c(c2C1=O)CN(C(=O)Nc1ccc(F)c(Cl)c1)CC3`, in data set [1], the CLint scaled turned out to be 26 mL/min/kg. For the same compound, the solubility thermodynamic in data set [2] was 179 µM (≈ 67.6 µg/mL).
For `CN1CC(F)Cn2nc3c(c2C1=O)CN(C(=O)Nc1ccc(F)c(C#N)c1)CC3` (racemic) the same measures were 5.2 mL/min/kg and 179 µM (≈ 71.7 µg/mL).
Turning to `CN1CC(F)Cn2nc3c(c2C1=O)CN(C(=O)Nc1ccnc(Br)c1F)CC3` (racemic), the CLint scaled in data set [1] came to 5 mL/min/kg. The solubility thermodynamic in data set [2] is 170 µM (≈ 77.4 µg/mL).
Consider `CN1CCCn2nc3c(c2C1=O)CN(C(=O)Nc1ccc(F)c(Cl)c1)CC3`, for which the CLint scaled in [1] was 11 mL/min/kg. The solubility thermodynamic in data set [2] was 195 µM (≈ 76.4 µg/mL).
As for `CN1CC(OCC(F)F)Cn2nc3c(c2C1=O)CN(C(=O)Nc1ccc(F)c(Cl)c1)CC3` (racemic), the CLint scaled in data set [1] was 5.4 mL/min/kg. The solubility thermodynamic in data set [2] turned out to be 181 µM (≈ 85.4 µg/mL).
For the compound `CN1CC(F)Cn2nc3c(c2C1=O)CN(C(=O)Nc1ccc(F)c(C(F)(F)F)c1)CC3` (racemic), the CLint scaled in data set [1] was 17 mL/min/kg. Further, the solubility thermodynamic in data set [2] was found to be 175 µM (≈ 77.6 µg/mL).
For `CN1CC(F)(F)Cn2nc3c(c2C1=O)CN(C(=O)Nc1ccc(F)c(Cl)c1)CC3` the same measures were 8.1 mL/min/kg and 181 µM (≈ 77.4 µg/mL).
Regarding `CC1CN(C)C(=O)c2c3c(nn2C1)CCN(C(=O)Nc1ccc(F)c(Cl)c1)C3` (racemic), in [1], the CLint scaled was 28 mL/min/kg. Also, the solubility thermodynamic in [2] was found to be 182 µM (≈ 73.9 µg/mL).
Broadly, the Tmax is the time from dosing to the highest level. As usually defined, the Cmax is the highest concentration seen after dosing. The logD is the decadic logarithm of the distribution of all forms, ionised or not, between an organic phase and buffer at a given pH. Read a low logD as lower lipophilicity. Usually bioavailability stands for dose-corrected exposure relative to a reference, in per cent. Low values mean little systemic uptake, high ones much systemic uptake. What is called AUC(0-inf) is total exposure, with the tail of the curve extrapolated. One may read the half-life as the time in which the quantity being followed falls by half. Lower therefore signals rapid decline. Take `C[C@@H]1Cc2nn3c(c2CN1C(=O)Nc1ccc(F)c(C#N)c1)C(=O)N(C)C[C@@H](F)C3`: the CLint scaled in data set [3] is less than 6.4 mL/min/kg; in data set [6] it was 44 mL/min/kg; in [8] it was 28 mL/min/kg; in data set [9], 7.7 mL/min/kg; in data set [11], 57 mL/min/kg; in [1], less than 6 mL/min/kg. The CLint scaled in data set [20] is 101 mL/min/kg; in [23], less than 6 mL/min/kg. Also, the time to peak (Tmax) in [4] came to 2 h; in data set [12] it was 0.5 h; in data set [27] it was 1.33 h. Besides, the fraction unbound was 0.34 in data set [5], 0.23 in data set [14], 0.38 in data set [19] and 0.19 in data set [25]. The figures for the peak concentration (Cmax) in data set [7], in [24] and in [32] were 1150 ng/mL, 98 ng/mL and 1270 ng/mL, respectively. The compound also yielded a logD in data set [10] of 1.95. Further, the bioavailability came out at 54% in data set [13], 44% in data set [26] and 47% in data set [30]. Further, the total exposure AUC(0-inf) in data set [15] amounted to 1930 ng·h/mL; in data set [22] it was 697 ng·h/mL; in data set [28], 7000 ng·h/mL. In addition, the Vdss in data set [16] came to 0.99 L/kg; in data set [17], 1 L/kg; in data set [33], 2.09 L/kg. Moreover, the half-life in [18] was 0.51 h; in [29] it was 4.3 h; in [31], 1.92 h. In data set [21], the Ratio EC50 stood at 1.5. Moreover, the solubility thermodynamic in [2] came to 72 µM (≈ 29.8 µg/mL).
What is called EC50 is the concentration needed to bring the measured effect to its halfway point. On to `CN1OC(CO)Cn2nc3c(c2C1=O)CN(C(=O)Nc1ccc(F)c(Cl)c1)CC3` (racemic), for which the CLint scaled in data set [1] was less than 7 mL/min/kg. Further, in [2], the solubility thermodynamic is 169 µM (≈ 71.6 µg/mL). The EC50 in data set [34] was 9 nM.
As to `CN1CC(F)Cn2nc3c(c2C1=O)CN(C(=O)Nc1ccc(F)c(Cl)c1)CC3` (racemic), the CLint scaled in data set [1] stood at 12 mL/min/kg. Also, in [2], the solubility thermodynamic came out at 183 µM (≈ 75 µg/mL).
For `C[C@@H]1Cc2nn3c(c2CN1C(=O)Nc1ccc(F)c(C#N)c1)C(=O)N(C)C[C@H](F)C3`, the CLint scaled in data set [6] is 31 mL/min/kg; in data set [1] it was less than 6 mL/min/kg; in data set [23], less than 8 mL/min/kg. In data set [10], this compound came in with a logD of 1.96.
Regarding `CN1CC(F)Cn2nc3c(c2C1=O)CN(C(=O)Nc1ccc(F)c(Br)c1)CC3` (racemic), the CLint scaled in data set [1] stood at 22 mL/min/kg. In addition, the solubility thermodynamic in [2] was 191 µM (≈ 86.8 µg/mL).
As to `C[C@@H]1Cc2nn3c(c2CN1C(=O)Nc1ccc(F)c(C#N)c1)C(=O)N(C)O[C@@H](CF)C3`, in [21], the Ratio EC50 was 2.
With `CN1CCCCn2nc3c(c2C1=O)CN(C(=O)Nc1ccc(F)c(Cl)c1)CC3`, in data set [1], the CLint scaled was determined as 16 mL/min/kg. In addition, the solubility thermodynamic in data set [2] was greater than 200 µM.
For `CN1C(=O)c2c3c(nn2CCC1CO)CCN(C(=O)Nc1ccc(F)c(Cl)c1)C3` (racemic) the same measures were 9 mL/min/kg and 189 µM (≈ 79.7 µg/mL).
